Source: paper doi:10.1101/2023.11.24.568596v1 (biorxiv, 2023)

Columns and labels:
Conditions in all cases: binder
CK1e = CK1e (Homo sapiens, UniProt P49674)
MARK3 = MARK3 (Homo sapiens, UniProt P27448)
CaMK2b = CaMK2b (Homo sapiens, UniProt Q13554)
NEK7 = NEK7 (Homo sapiens, UniProt Q8TDX7)
Erk3 = Erk3 (Homo sapiens, UniProt Q16659)
EphB3 = molecular target: T1, EphB3 (Homo sapiens, UniProt P54753)
T1 sequence (P54753 1-998): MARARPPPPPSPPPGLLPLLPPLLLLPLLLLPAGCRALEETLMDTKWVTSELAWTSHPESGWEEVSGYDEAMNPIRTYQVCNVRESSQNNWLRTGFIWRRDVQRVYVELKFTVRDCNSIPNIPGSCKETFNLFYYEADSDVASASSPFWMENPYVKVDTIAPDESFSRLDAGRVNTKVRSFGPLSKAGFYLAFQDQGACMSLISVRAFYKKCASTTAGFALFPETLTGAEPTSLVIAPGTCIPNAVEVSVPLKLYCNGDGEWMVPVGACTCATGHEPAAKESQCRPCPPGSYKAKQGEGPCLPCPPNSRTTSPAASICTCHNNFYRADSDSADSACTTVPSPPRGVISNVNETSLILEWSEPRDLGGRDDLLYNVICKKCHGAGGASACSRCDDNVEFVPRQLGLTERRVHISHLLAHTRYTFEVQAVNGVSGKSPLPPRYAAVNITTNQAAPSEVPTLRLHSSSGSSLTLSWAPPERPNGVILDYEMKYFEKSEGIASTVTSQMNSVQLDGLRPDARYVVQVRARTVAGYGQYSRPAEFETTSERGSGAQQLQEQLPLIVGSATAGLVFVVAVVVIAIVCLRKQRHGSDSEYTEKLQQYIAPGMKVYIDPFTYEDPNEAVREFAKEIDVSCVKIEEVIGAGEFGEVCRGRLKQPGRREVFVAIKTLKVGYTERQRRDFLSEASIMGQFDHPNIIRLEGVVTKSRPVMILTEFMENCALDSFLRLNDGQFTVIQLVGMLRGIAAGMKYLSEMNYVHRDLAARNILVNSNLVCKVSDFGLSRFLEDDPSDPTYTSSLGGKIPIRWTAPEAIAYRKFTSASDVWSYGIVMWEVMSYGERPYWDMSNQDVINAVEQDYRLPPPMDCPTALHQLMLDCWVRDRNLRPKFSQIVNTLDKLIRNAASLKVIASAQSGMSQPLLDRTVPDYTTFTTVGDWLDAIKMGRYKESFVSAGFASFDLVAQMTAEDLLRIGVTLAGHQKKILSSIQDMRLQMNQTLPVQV

CK1d = CK1d (Homo sapiens, UniProt P48730)
CK1d, sequence (P48730 whole entry): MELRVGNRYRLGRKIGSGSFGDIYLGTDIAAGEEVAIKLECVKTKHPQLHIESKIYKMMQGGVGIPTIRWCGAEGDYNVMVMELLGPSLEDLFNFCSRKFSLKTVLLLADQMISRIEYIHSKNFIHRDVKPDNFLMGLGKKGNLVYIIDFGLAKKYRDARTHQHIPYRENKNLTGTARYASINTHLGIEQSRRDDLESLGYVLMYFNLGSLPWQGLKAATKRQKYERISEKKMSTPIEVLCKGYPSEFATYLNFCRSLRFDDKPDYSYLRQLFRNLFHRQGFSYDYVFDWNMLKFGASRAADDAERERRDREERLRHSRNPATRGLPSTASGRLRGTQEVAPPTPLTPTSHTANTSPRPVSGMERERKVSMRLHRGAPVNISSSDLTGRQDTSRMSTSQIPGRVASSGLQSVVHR

LOK = LOK (Homo sapiens, UniProt O94804)
MAP2K7 = molecular target: T2, MAP2K7 (Homo sapiens, UniProt O14733)
T2 sequence (O14733 1-419): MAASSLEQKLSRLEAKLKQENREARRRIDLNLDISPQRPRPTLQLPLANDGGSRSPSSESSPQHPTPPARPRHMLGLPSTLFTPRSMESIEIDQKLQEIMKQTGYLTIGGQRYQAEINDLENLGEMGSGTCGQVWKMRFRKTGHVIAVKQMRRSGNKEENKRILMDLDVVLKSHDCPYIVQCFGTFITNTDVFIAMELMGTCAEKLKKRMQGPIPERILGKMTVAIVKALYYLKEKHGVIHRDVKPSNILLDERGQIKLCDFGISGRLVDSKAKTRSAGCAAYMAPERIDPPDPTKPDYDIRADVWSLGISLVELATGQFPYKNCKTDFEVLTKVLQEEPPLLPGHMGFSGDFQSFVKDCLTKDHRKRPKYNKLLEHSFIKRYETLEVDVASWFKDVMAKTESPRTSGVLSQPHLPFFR

PHKG2 = molecular target: T3, PHKG2 (Homo sapiens, UniProt P15735)
T3 sequence (P15735 1-406): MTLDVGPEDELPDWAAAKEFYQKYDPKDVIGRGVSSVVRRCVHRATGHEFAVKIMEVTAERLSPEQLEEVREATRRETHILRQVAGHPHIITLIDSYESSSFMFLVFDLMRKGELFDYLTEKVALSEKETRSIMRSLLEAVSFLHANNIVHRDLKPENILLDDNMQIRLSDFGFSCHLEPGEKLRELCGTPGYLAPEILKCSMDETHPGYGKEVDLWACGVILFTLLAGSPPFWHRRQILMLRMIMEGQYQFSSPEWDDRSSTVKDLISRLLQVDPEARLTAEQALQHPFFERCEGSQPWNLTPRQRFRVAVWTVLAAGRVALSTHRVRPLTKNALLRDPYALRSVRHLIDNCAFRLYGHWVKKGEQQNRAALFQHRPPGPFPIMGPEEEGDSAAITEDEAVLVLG

PAK1 = PAK1 (Homo sapiens, UniProt Q13153)
FLT1 = FLT1 (Homo sapiens, UniProt P17948)
FLT1, sequence (P17948 whole entry): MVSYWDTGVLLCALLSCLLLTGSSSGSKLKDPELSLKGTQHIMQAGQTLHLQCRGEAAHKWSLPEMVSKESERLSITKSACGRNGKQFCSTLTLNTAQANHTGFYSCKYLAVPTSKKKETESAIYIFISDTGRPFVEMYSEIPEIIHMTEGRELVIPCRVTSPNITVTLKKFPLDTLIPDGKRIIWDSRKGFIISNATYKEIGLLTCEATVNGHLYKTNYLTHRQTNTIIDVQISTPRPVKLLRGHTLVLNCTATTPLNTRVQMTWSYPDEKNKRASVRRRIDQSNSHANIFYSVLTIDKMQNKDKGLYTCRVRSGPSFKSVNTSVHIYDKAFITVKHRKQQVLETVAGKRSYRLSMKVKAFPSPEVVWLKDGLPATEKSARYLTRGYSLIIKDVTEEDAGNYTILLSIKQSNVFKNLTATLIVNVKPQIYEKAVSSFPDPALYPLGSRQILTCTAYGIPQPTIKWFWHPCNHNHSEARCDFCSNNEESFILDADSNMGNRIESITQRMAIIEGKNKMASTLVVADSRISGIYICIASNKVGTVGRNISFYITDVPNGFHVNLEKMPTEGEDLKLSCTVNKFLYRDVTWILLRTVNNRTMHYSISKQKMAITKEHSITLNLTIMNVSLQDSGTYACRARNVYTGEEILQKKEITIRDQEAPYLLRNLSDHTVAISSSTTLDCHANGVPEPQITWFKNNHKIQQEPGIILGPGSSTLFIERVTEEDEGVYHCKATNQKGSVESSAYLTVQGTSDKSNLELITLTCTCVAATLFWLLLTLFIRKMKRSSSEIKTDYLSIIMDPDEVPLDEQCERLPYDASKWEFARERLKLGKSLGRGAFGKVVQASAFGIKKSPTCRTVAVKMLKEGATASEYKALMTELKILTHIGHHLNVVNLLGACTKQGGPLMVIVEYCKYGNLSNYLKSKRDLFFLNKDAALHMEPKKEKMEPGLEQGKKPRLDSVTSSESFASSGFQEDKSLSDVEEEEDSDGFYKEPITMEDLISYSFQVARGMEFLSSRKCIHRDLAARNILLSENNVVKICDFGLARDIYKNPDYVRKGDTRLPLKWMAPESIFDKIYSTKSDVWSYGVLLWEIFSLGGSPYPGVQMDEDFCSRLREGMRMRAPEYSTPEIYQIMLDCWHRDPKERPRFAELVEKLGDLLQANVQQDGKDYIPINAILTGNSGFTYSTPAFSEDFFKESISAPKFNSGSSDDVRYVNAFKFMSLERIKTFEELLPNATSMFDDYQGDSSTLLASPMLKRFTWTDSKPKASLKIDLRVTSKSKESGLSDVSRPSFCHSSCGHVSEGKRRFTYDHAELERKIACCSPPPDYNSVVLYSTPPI

FES = FES (Homo sapiens, UniProt P07332)
FES, sequence (P07332 whole entry): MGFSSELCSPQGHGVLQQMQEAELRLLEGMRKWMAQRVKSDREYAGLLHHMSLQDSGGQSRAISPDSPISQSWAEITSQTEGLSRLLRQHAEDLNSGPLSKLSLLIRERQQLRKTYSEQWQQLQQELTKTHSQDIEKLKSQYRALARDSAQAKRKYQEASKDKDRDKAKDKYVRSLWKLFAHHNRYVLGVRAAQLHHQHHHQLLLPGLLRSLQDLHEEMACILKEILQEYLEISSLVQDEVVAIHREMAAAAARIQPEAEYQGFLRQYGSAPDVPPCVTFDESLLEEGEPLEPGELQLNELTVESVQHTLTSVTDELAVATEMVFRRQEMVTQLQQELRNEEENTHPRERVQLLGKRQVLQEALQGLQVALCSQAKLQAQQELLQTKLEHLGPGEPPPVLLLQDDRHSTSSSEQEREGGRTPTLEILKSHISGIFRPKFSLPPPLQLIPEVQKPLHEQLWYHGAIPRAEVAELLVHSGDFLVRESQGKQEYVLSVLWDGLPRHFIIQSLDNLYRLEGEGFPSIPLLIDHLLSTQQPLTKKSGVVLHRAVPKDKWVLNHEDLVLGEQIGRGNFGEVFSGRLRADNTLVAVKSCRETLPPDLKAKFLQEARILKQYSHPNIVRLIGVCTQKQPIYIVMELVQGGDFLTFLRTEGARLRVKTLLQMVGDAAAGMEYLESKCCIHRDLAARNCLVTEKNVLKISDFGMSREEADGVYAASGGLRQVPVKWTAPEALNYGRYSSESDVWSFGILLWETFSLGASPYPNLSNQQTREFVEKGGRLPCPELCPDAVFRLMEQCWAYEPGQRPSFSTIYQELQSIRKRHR

DAPK1 = DAPK1 (Homo sapiens, UniProt P53355)
DAPK1, sequence (P53355 whole entry): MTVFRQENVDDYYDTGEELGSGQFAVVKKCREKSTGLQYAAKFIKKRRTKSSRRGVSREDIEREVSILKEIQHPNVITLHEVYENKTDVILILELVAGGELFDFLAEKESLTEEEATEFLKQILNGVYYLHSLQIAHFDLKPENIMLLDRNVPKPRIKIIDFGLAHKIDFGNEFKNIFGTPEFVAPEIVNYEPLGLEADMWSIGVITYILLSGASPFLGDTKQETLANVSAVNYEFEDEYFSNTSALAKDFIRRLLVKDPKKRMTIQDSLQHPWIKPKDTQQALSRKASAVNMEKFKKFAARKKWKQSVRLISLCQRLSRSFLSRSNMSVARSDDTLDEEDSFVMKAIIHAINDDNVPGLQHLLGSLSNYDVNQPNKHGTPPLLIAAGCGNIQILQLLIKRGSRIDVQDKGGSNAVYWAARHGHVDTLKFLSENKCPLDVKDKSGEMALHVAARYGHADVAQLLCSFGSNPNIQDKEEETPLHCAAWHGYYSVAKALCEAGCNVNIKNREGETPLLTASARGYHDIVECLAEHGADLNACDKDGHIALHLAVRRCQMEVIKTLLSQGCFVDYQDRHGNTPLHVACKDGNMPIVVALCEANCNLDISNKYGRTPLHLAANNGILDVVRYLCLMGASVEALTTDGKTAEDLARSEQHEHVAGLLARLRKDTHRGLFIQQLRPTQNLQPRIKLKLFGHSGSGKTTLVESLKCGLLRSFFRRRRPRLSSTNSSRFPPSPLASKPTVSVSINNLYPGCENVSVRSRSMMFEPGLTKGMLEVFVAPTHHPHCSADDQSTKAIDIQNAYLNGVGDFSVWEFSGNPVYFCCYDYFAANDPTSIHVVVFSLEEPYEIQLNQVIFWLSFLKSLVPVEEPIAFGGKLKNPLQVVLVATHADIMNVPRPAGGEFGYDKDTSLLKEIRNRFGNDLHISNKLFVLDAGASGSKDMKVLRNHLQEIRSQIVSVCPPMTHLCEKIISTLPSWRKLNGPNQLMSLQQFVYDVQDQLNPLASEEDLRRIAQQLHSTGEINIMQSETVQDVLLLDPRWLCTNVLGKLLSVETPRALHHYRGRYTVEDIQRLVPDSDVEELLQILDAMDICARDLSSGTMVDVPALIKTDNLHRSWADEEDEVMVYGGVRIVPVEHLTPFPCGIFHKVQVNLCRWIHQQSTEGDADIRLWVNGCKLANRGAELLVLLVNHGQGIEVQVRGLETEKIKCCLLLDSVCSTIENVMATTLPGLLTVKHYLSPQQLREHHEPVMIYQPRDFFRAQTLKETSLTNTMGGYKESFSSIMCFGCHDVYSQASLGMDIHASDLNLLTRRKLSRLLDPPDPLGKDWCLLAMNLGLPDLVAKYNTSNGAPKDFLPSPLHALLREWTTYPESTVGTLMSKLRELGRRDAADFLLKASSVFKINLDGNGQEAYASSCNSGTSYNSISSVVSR

CK1e, sequence (P49674 whole entry): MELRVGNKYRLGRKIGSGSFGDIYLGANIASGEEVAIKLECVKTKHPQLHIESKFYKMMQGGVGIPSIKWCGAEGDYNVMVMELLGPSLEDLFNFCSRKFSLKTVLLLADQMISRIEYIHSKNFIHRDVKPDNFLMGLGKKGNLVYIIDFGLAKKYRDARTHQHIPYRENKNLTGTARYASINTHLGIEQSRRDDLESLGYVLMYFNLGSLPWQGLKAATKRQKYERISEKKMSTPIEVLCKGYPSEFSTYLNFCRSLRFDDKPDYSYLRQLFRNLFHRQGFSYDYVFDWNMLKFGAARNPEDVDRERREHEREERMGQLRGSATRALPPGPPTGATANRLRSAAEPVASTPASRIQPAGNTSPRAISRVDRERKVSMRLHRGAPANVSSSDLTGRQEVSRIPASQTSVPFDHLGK
NEK7, sequence (Q8TDX7 whole entry): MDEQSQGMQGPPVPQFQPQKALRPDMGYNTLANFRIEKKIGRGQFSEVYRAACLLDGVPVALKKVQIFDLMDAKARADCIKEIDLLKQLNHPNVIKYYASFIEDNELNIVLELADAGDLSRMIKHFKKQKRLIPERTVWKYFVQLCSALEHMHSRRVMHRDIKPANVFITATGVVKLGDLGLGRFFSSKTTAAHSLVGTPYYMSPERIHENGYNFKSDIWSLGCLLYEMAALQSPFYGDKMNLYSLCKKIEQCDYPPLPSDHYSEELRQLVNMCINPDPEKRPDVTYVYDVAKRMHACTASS

Cc1cccc(-c2ccc(-c3cc4cnc(NCCCN5CCCC5=O)nc4n(CCCCN)c3=O)c(Cl)c2)n1 [compound 27, MR30]
ΔTm MR30 (27) (CK1e): 6.4 °C | ΔTm MR30 (27) (MARK3): 4.7 °C | ΔTm MR30 (27) (CaMK2b): -1.1 °C | ΔTm MR30 (27) (NEK7): -0.4 °C | ΔTm MR30 (27) (Erk3): 0.5 °C | ΔTm MR30 (27) (EphB3): 2.3 °C | ΔTm MR30 (27) (CK1d): 1.6 °C | ΔTm MR30 (27) (LOK): -0.6 °C | ΔTm MR30 (27) (MAP2K7): 2.6 °C | ΔTm MR30 (27) (PHKG2): 1.2 °C | ΔTm MR30 (27) (PAK1): 4.6 °C | ΔTm MR30 (27) (FLT1): 2.4 °C | ΔTm MR30 (27) (FES): 5.0 °C | ΔTm MR30 (27) (DAPK1): -1.2 °C

Cc1cccc(-c2ccc(-c3cc4cnc(Nc5cc(C(F)(F)F)ccc5C)nc4n(CCCCN)c3=O)c(Cl)c2)n1 [compound 28, 8-(4-Aminobutyl)-6-(2-chloro-4-(6-methylpyridin-2-yl)phenyl)-2-((2-methyl-5-(trifluoromethyl)phenyl)amino)pyrido[2,3-d]pyrimidin-7(8H)-one]
ΔTm 28 (CK1e): 4.9 °C | ΔTm 28 (MARK3): 3.8 °C | ΔTm 28 (CaMK2b): 0.7 °C | ΔTm 28 (NEK7): -0.7 °C | ΔTm 28 (Erk3): 0.7 °C | ΔTm 28 (EphB3): 4.1 °C | ΔTm 28 (CK1d): 1.4 °C | ΔTm 28 (LOK): -0.7 °C | ΔTm 28 (MAP2K7): 2.9 °C | ΔTm 28 (PHKG2): 2.4 °C | ΔTm 28 (PAK1): 6.0 °C | ΔTm 28 (FLT1): 7.8 °C | ΔTm 28 (FES): 8.5 °C | ΔTm 28 (DAPK1): -0.7 °C

Cc1cccc(-c2ccc(-c3cc4cnc(NCCCN5CCNCC5)nc4n(CCCCN)c3=O)c(Cl)c2)n1 [compound 29, 8-(4-Aminobutyl)-6-(2-chloro-4-(6-methylpyridin-2-yl)phenyl)-2-((3-(piperazin-1-yl)propyl)amino)pyrido[2,3-d]pyrimidin-7(8H)-one]
ΔTm 29 (CK1e): 5.8 °C | ΔTm 29 (MARK3): 5.8 °C | ΔTm 29 (CaMK2b): -0.5 °C | ΔTm 29 (NEK7): -0.2 °C | ΔTm 29 (Erk3): 0.3 °C | ΔTm 29 (EphB3): 2.3 °C | ΔTm 29 (CK1d): 1.3 °C | ΔTm 29 (LOK): -0.4 °C | ΔTm 29 (MAP2K7): 1.4 °C | ΔTm 29 (PHKG2): 2.2 °C | ΔTm 29 (PAK1): 7.1 °C | ΔTm 29 (FLT1): 3.9 °C | ΔTm 29 (FES): 6.0 °C | ΔTm 29 (DAPK1): -0.9 °C

Cc1cccc(-c2ccc(-c3cc4cnc(Nc5ccc(CCCO)cc5)nc4n(CCCCN)c3=O)c(Cl)c2)n1 [compound 30, 8-(4-Aminobutyl)-6-(2-chloro-4-(6-methylpyridin-2-yl)phenyl)-2-((4-(3-hydroxypropyl)phenyl)amino)pyrido[2,3-d]pyrimidin-7(8H)-one]
ΔTm 30 (CK1e): 8.2 °C | ΔTm 30 (MARK3): 11.6 °C | ΔTm 30 (CaMK2b): 0.3 °C | ΔTm 30 (NEK7): -0.9 °C | ΔTm 30 (Erk3): 1.1 °C | ΔTm 30 (EphB3): 6.9 °C | ΔTm 30 (CK1d): 2.8 °C | ΔTm 30 (LOK): -0.4 °C | ΔTm 30 (MAP2K7): 6.2 °C | ΔTm 30 (PHKG2): 6.7 °C | ΔTm 30 (PAK1): 10.7 °C | ΔTm 30 (FLT1): 4.3 °C | ΔTm 30 (FES): 9.1 °C | ΔTm 30 (DAPK1): -0.7 °C

Cc1cccc(-c2ccc(-c3cc4cnc(Nc5ccc(O)cc5)nc4n(CCCCN)c3=O)c(Cl)c2)n1 [compound 31, 8-(4-Aminobutyl)-6-(2-chloro-4-(6-methylpyridin-2-yl)phenyl)-2-((4-hydroxyphenyl)amino) pyrido[2,3-d]pyrimidin-7(8H)-one]
ΔTm 31 (CK1e): 7.5 °C | ΔTm 31 (MARK3): 10.9 °C | ΔTm 31 (CaMK2b): -0.4 °C | ΔTm 31 (NEK7): -1.6 °C | ΔTm 31 (Erk3): 1.2 °C | ΔTm 31 (EphB3): 5.3 °C | ΔTm 31 (CK1d): 2.8 °C | ΔTm 31 (LOK): -0.4 °C | ΔTm 31 (MAP2K7): 8.9 °C | ΔTm 31 (PHKG2): 6.4 °C | ΔTm 31 (PAK1): 10.6 °C | ΔTm 31 (FLT1): 5.6 °C | ΔTm 31 (FES): 8.7 °C | ΔTm 31 (DAPK1): -0.6 °C

Cc1cccc(-c2ccc(-c3cc4cnc(Nc5ccc(C)c(O)c5)nc4n(CCCCN)c3=O)c(Cl)c2)n1 [compound 32, 8-(4-Aminobutyl)-6-(2-chloro-4-(6-methylpyridin-2-yl)phenyl)-2-((3-hydroxy-4-methylphenyl)amino)pyrido[2,3-d]pyrimidin-7(8H)-one]
ΔTm 32 (CK1e): 7.7 °C | ΔTm 32 (MARK3): 10.9 °C | ΔTm 32 (CaMK2b): 0.3 °C | ΔTm 32 (NEK7): -0.6 °C | ΔTm 32 (Erk3): 1.0 °C | ΔTm 32 (EphB3): 8.5 °C | ΔTm 32 (CK1d): 2.3 °C | ΔTm 32 (LOK): -0.2 °C | ΔTm 32 (MAP2K7): 7.3 °C | ΔTm 32 (PHKG2): 6.4 °C | ΔTm 32 (PAK1): 10.4 °C | ΔTm 32 (FLT1): 5.6 °C | ΔTm 32 (FES): 8.8 °C | ΔTm 32 (DAPK1): -0.9 °C
